Test results as given in patent US20110178062A1, “INDOLE AND BENZOTHIOPHENE COMPOUNDS AS MODULATORS OF THE HISTAMINE H3 RECEPTOR” (priority 2007, published 2011).

target: T1, cloned human H3 receptors, stably expressed in SK-N-MC cells (Homo sapiens, UniProt Q9Y5N1); test: H3 Receptor Binding (Human); details: average of the results obtained
T1 construct: expressed in transfected cells; host or cells: SK-N-MC cells
Protocol: Binding of compounds to the cloned human H3 receptors, stably expressed in SK-N-MC cells, was performed as described by Barbier, A. J. et al. (Br. J. Pharmacol. 2004, 143(5), 649-661). Data for compounds tested in this assay are presented in Table 1 as an average of the results obtained.

T1 sequence (Q9Y5N1 whole entry): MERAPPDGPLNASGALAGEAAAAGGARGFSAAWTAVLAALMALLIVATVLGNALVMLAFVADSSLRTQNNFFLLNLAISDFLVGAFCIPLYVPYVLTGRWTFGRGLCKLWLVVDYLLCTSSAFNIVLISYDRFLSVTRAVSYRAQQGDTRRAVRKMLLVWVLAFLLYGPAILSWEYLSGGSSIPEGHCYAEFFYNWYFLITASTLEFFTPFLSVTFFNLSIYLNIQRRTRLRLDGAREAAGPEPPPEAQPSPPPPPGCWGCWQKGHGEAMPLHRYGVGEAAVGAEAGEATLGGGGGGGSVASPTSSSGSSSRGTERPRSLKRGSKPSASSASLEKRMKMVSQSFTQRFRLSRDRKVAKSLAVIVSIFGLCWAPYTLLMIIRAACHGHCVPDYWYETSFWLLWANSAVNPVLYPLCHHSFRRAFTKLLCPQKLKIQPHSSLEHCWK

Structure (SMILES) | Ki [nM]
CN(C)C1CCN(Cc2c[nH]c3cc(C(=O)N4CCC(Cc5ccccc5)CC4)ccc23)C1 (stereo not drawn) [Example 101] | 9
O=C(c1ccc2[nH]cc(CN3CCN(C4CCC4)CC3)c2c1)N1CCCCC1 [Example 38, [3-(4-Cyclobutyl-piperazin-1-ylmethyl)-1H-indol-5-yl]-piperidin-1-yl-methanone] | 427
O=C(c1ccc2c(CN3CCN(C4CCCC4)CC3)c[nH]c2c1)N1CCSCC1 [Example 68, [3-(4-Cyclopentyl-piperazin-1-ylmethyl)-1H-indol-6-yl]-thiomorpholin-4-yl-methanone] | 36
O=C(c1ccc2[nH]cc(CN3CCCCC3)c2c1)N1CCN(C2CCC2)CC1 [Example 33, (4-Cyclobutyl-piperazin-1-yl)-(3-piperidin-1-ylmethyl-1H-indol-5-yl)-methanone] | 13
CC(C)N1CCN(C(=O)c2ccc3c(CN4CCN(C(=O)c5ccncc5)CC4)c[nH]c3c2)CC1 [Example 62, (4-Isopropyl-piperazin-1-yl)-{3-[4-(pyridine-4-carbonyl)-piperazin-1-ylmethyl]-1H-indol-6-yl}-methanone] | 7
O=C(NCc1ccncc1)c1ccc2c(CN3CCOCC3)c[nH]c2c1 [Example 11, 3-Morpholin-4-ylmethyl-1H-indole-6-carboxylic acid (pyridin-4-ylmethyl)-amide] | 228
CC(C)N1CCCN(Cc2c[nH]c3cc(C(=O)N4CCC(CO)CC4)ccc23)CC1 [Example 84, (4-Hydroxymethyl-piperidin-1-yl)-[3-(4-isopropyl-[1,4]diazepan-1-ylmethyl)-1H-indol-6-yl]-methanone] | 87
O=C(c1ccc2c(CN3CCN(C4CCC4)CC3)c[nH]c2c1)N1CCC(Cc2ccccc2)CC1 [Example 107, (4-Benzyl-piperidin-1-yl)-[3-(4-cyclobutyl-piperazin-1-ylmethyl)-1H-indol-6-yl]-methanone] | 12
O=C(c1cccc2[nH]cc(CN3CCN(C4CCC4)CC3)c12)N1CCCCC1 [Example 37, [3-(4-Cyclobutyl-piperazin-1-ylmethyl)-1H-indol-4-yl]-piperidin-1-yl-methanone] | 318
Cc1cccnc1CNC(=O)c1ccc2c(CN3CCOCC3)c[nH]c2c1 [Example 12, 3-Morpholin-4-ylmethyl-1H-indole-6-carboxylic acid (3-methyl-pyridin-2-ylmethyl)-amide] | 2000
CC(C)N1CCN(C(=O)c2ccc3c(CN4CCN(CCc5ccccc5)CC4)c[nH]c3c2)CC1 [Example 56, (4-Isopropyl-piperazin-1-yl)-[3-(4-phenethyl-piperazin-1-ylmethyl)-1H-indol-6-yl]-methanone] | 2
O=C(c1ccc2c(CN3CCCN(C4CCC4)CC3)c[nH]c2c1)N1CCCCCC1 [Example 98, Azepan-1-yl-[3-(4-cyclobutyl-[1,4]diazepan-1-ylmethyl)-1H-indol-6-yl]-methanone] | 34
O=C(c1cccc2c(CN3CCN(C4CCC4)CC3)c[nH]c12)N1CCCCC1 [Example 36, [3-(4-Cyclobutyl-piperazin-1-ylmethyl)-1H-indol-7-yl]-piperidin-1-yl-methanone] | 81
O=C(c1ccc2c(CN3CCN(C4CC4)CC3)c[nH]c2c1)N1CCCCC1 [Example 28, [3-(4-Cyclopropyl-piperazin-1-ylmethyl)-1H-indol-6-yl]-piperidin-1-yl-methanone] | 177
CC(=O)N(C)C1CCN(Cc2c[nH]c3cc(C(=O)N4CCN(C(C)C)CC4)ccc23)C1 (stereo not drawn) [Example 60, N-{1-[6-(4-Isopropyl-piperazine-1-carbonyl)-1H-indol-3-ylmethyl]-pyrrolidin-3-yl}-N-methyl-acetamide] | 1
O=C(c1ccc2scc(CN3CCCCC3)c2c1)N1CCN(C2CCC2)CC1 [Example 103, (4-Cyclobutyl-piperazin-1-yl)-(3-piperidin-1-ylmethyl-benzo[b]thiophen-5-yl)-methanone] | 7
CN(C)C1CCN(Cc2c[nH]c3cc(C(=O)N4CCC(CO)CC4)ccc23)C1 (stereo not drawn) [Example 94, [3-(3-Dimethylamino-pyrrolidin-1-ylmethyl)-1H-indol-6-yl]-(4-hydroxymethyl-piperidin-1-yl)-methanone] | 27
O=C(c1ccc2[nH]cc(CN3CCOCC3)c2c1)N1CCN(C2CCC2)CC1 [Example 40, (4-Cyclobutyl-piperazin-1-yl)-(3-morpholin-4-ylmethyl-1H-indol-5-yl)-methanone] | 33
O=C(c1ccc2c(CN3CCN(C4CCCC4)CC3)c[nH]c2c1)N1CCC(CO)CC1 [Example 80, [3-(4-Cyclopentyl-piperazin-1-ylmethy)l-1H-indol-6-yl]-(4-hydroxymethyl-piperidin-1-yl)-methanone] | 38

Structure (SMILES) | Ki [nM]
O=C(c1ccc2c(CN3CCCN(C4CCC4)CC3)c[nH]c2c1)N1CCSCC1 [Example 71, [3-(4-Cyclobutyl-[1,4]diazepan-1-ylmethyl)-1H-indol-6-yl]-thiomorpholin-4-yl-methanone] | 22
CC(C)N1CCN(C(=O)c2ccc3c(CN4CCC(O)(c5ccccc5)CC4)c[nH]c3c2)CC1 [Example 65, [3-(4-Hydroxy-4-phenyl-piperidin-1-ylmethyl)-1H-indol-6-yl]-(4-isopropyl-piperazin-1-yl)-methanone] | 1
CC(C)N1CCN(C(=O)c2ccc3c(CN4CCC(Cc5ccccc5)CC4)c[nH]c3c2)CC1 [Example 55, [3-(4-Benzyl-piperidin-1-ylmethyl)-1H-indol-6-yl]-(4-isopropyl-piperazin-1-yl)-methanone] | 1
O=C(c1ccc2c(CN3CCN(C4CCC4)CC3)c[nH]c2c1)N1CCC(c2ccccc2)CC1 [Example 43, [3-(4-Cyclobutyl-piperazine-1-ylmethyl)-1H-indol-6-yl]-(4-phenyl-piperidin-1-yl)-methanone] | 8
CC(C)N1CCN(C(=O)c2ccc3c(CN4CCN(c5ccccn5)CC4)c[nH]c3c2)CC1 [Example 46, (4-Isopropyl-piperazin-1-yl)-[3-(4-pyridin-2-yl-piperazin-1-ylmethyl)-1H-indol-6-yl]-methanone] | 3
CC(C)N1CCN(C(=O)c2ccc3c(CN4CCCCC4)c[nH]c3c2)CC1 [Example 24, (4-Isopropyl-piperazin-1-yl)-(3-piperidin-1-ylmethyl-1H-indol-6-yl)-methanone] | 2
O=C(c1ccc2c(CN3CCN(C4CCC4)CC3)c[nH]c2c1)N1CCOCC1 [Example 75, [3-(4-Cyclobutyl-piperazin-1-ylmethyl)-1H-indol-6-yl]-morpholin-4-yl-methanone] | 43
CC(C)N1CCN(C(=O)c2ccc3[nH]cc(CN4CCCCC4)c3c2)CC1 [Example 32, (4-Isopropyl-piperazin-1-yl)-(3-piperidin-1-ylmethyl-1H-indol-5-yl)-methanone] | 34
O=C(c1ccc2c(CN3CCCN(C4CCC4)CC3)c[nH]c2c1)N1CCC(CO)CC1 [Example 83, [3-(4-Cyclobutyl-[1,4]diazepan-1-ylmethyl)-1H-indol-6-yl]-(4-hydroxymethyl-piperidin-1-yl)-methanone] | 27
CC(C)N1CCCN(Cc2c[nH]c3cc(C(=O)N4CCCCC4)ccc23)CC1 [Example 30, [3-(4-Isopropyl-[1,4]diazepan-1-ylmethyl)-1H-indol-6-yl]-piperidin-1-yl-methanone] | 26
O=C(c1ccc2c(CN3CCCN(C4CCC4)CC3)c[nH]c2c1)N1CCC(c2ccccc2)CC1 [Example 89, [3-(4-Cyclobutyl-[1,4]diazepan-1-ylmethyl)-1H-indol-6-yl]-(4-phenyl-piperidin-1-yl)-methanone] | 31
CC(C)N1CCN(C(=O)c2ccc3c(CN4CCN(c5ccc(-c6ccccc6)cc5)CC4)c[nH]c3c2)CC1 [Example 52, [3-(4-Biphenyl-4-yl-piperazin-1-ylmethyl)-1H-indol-6-yl]-(4-isopropyl-piperazin-1-yl)-methanone] | 12
O=C(NCc1ccncc1)c1ccc2c(CN3CCCCC3)c[nH]c2c1 [Example 16, 3-Piperidin-1-ylmethyl-1H-indole-6-carboxylic acid (pyridin-4-ylmethyl)-amide] | 327
O=C(c1ccc2c(CN3CCN(C4CCCC4)CC3)c[nH]c2c1)N1CCC(Cc2ccccc2)CC1 [Example 99, (4-Benzyl-piperidin-1-yl)-[3-(4-cyclopentyl-piperazin-1-ylmethyl)-1H-indol-6-yl]-methanone] | 28
O=C(c1ccc2scc(C(=O)N3CCCCC3)c2c1)N1CCN(C2CCC2)CC1 [Example 105, [5-(4-Cyclobutyl-piperazine-1-carbonyl)-benzo[b]thiophen-3-yl]-piperidin-1-yl-methanone] | 215
O=C(c1ccc2c(CN3CCC(N4CCCCC4)CC3)c[nH]c2c1)N1CCC(CO)CC1 [Example 79, (3-[1,4′]Bipiperidinyl-1′-ylmethyl-1H-indol-6-yl)-(4-hydroxymethyl-piperidin-1-yl)-methanone] | 62
CN(C)C1CCN(Cc2c[nH]c3cc(C(=O)N4CCC(CO)CC4)ccc23)CC1 [Example 96, [3-(4-Dimethylamino-piperidin-1-ylmethyl)-1H-indol-6-yl]-(4-hydroxymethyl-piperidin-1-yl)-methanone] | 439
CC(=O)N1CCCN(Cc2c[nH]c3cc(C(=O)N4CCN(C(C)C)CC4)ccc23)CC1 [Example 50, 1-{4-[6-(4-Isopropyl-piperazine-1-carbonyl)-1H-indol-3-ylmethyl]-[1,4]diazepam-1-yl}-ethanone] | 3
CC(C)N1CCN(C(=O)c2ccc3c(CN4CCN(C(=O)c5ccccc5)CC4)c[nH]c3c2)CC1 [Example 63, [3-(4-Benzoyl-piperazin-1-ylmethyl)-1H-indol-6-yl]-(4-isopropyl-piperazin-1-yl)-methanone] | 1

same assay, conditions: stated in text for the intermediate of Example 35, Step A

Structure (SMILES) | Ki [nM]
CC(C)N1CCN(C(=O)c2ccc3[nH]ccc3c2)CC1 [(1H-Indol-5-yl)-(4-isopropyl-piperazin-1-yl)-methanone] | 97
